Measured values published in patent US20040192641A1, “Special preparation of anticancer drugs made by novel nanotechnology” (priority 2003, published 2004).

Columns and labels:
[1] = Subacute toxicity test; type: in vivo; conditions: 50 times the clinical dose, continually for two months
[2] = system: L1210; experiment: Growth of transplanted tumor, L1210 (tumor weight); type: in vivo, mice; conditions: 20 mg/kg i.p. from second day, tumor weight on 12th day
Experimental: (§1) Male mice, weight 20-22 g, were used in the experiment. 1×10^7 tumor cells were injected to mouse and PK-HHT-NP injected intraperitoneally began second day. All mice were sacrificed on the 12th days, isolated the tumor and weighed and calculated the inhibition rate of tumor weight.
(§2) Male mice, weight 20-22 g, were used in the experiment. 1×10^7 tumor cells were injected to mouse and CUR and PK-CUR-NP injected intraperitoneally began second day. All mice were sacrificed on the 12th days, isolated the tumor and weighed and calculated the inhibition rate of tumor weight.
(§3) Male mice, weight 20-22 g, were used in the experiment. 1×10^7 tumor cells were injected to mouse and ELE injected intraperitoneally began second day. All mice were sacrificed on the 12th days, isolated the tumor and weighed and calculated the inhibition rate of tumor weight.
(§4) Male mice, weight 20-22 g, were used in the experiment. 1×10^7 tumor cells were injected to mouse and CPT injected intraperitoneally began second day. All mice were sacrificed on the 12th days, isolated the tumor and weighed and calculated the inhibition rate of tumor weight.

[3] = system: Human leukemia cells (HL-60); experiment: Apoptosis of cancer cells (HL-60); type: cell-based
Experimental: Human leukemia cells (HL-60) were grown in RPMI Medium 1640 supplemented with 10% (v/v) heat-inactivated FBS (56° C. for 30 min) at 37° C. in a humidified 95% air/5% CO2 atmosphere. Cells were seeded at a level of 2×10^5 cells/ml. Cells were allowed to attain a maximum density of 1.2×10^6 cells/ml before being passed by dilution into fresh medium to a concentration of 2×10^5 cells/ml.
Apoptosis determined by the following process: Cell pellets containing 5×10^6 cells were fixed with 2.5% glutaraldehyde in cacodylate buffer (pH 7.4), dehydrated through graded alcohol, and infiltrated with LX-112 epoxy resin. After overnight polymerization at 60° C. 1-μm sections were cut with glass knives using a LKB Nova microtome. The sections were stained with 1% toluidine blue and coverslipped.
DNA electrophoresis: Untreated and treated HL-60 cells collected by centrifugation, washed in phosphate buffered saline and re-suspended at a concentration of 5×10^6 cells and 0.1% RNase A. The mixture was incubated at 37° C. for 30 min and then incubated for an additional 30 min at 37° C. with 1 ml protease K. Buffer was added and 25 μl of the tube content transferred to the Horizontal 1.5% agarose gel electrophoresis was performed at 2 V/cm. DNA in gels visualized under UV light after staining with ethidium Bromide (5 μg/ml).
DNA fragmentation assays: DNA cleavage was performed, quantitation of fractional solubilized DNA by diphenylamine assay and the percentage of cells harboring fragmented DNA determined by in labeling techniques. For the diphenylamine assay, 5×10^6 cells were lysed in 0.5 mL lysis buffer (5 mmol/L Tris-HCl, 20 mmol/L DTA, and 0.5% Triton X-100, pH 8.0) at 4° C. Lysates were centrifuged (15,000 g) for separation of high molecular weight DNA (pellet) and DNA cleavage products (supernatant). DNA was precipitated with 0.5 N perchloric acid and quantitated using diphenylamine reagent. The cell cycle distribution was determined 4 hours after addition of drug and represents mean±SD of 5 independent experiments.
Human promyelocytic leukemia cells (HL-60) were grown in RPMI Medium 1640 supplemented with 10% (v/v) heat-inactivated FBS (56° C. for 30 min) at 37° C. in a humidified 95% air/5% CO2 atmosphere. Cells were seeded at a level of 2×10^5 cells/ml. Cells were allowed to attain a maximum density of 1.2×10^6 cells/ml before being passed by dilution into fresh medium to a concentration of 2×10^5 cells/ml. Apoptosis determined by the following process: Cell pellets containing 5×10^6 cells ere fixed with 2.5% glutaraldehyde in cacodylate buffer (pH 7.4), dehydrated through graded alcohol, and infiltrated with LX-112 epoxy resin. After overnight polymerization at 60° C. 1-μm sections were cut with glass knives using a LKB Nova microtome. The sections were stained with 1% toluidine blue and coverslipped. […]
DNA fragmentation assays: DNA cleavage was performed, quantitation of fractional solubilized DNA by diphenylamine assay and the percentage of cells harboring fragmented DNA determined by in labeling techniques. […] DNA was precipitated with 0.5N perchloric acid and quantitated using diphenylamine reagent. […]

[4] = system: Walker 256; experiment: Growth of transplanted tumor, Walker 256 (tumor weight); type: in vivo, mice; conditions: 20 mg/kg i.p. from second day, tumor weight on 12th day
Experimental: as §1, §2, §3, §4

| Compound | subacute toxicity: side effects [1] | Inhibition (%) of transplanted tumor [2] [%] | Apoptosis (%) ([3]; concentration not given) | Inhibition (%) of transplanted tumor [4] [%] | Apoptosis (%) ([3]; Concentration 20 μm) | Apoptosis (%) ([3]; Example 59) |
| --- | --- | --- | --- | --- | --- | --- |
| C=C1C[C@@]2(O)O[C@@]3(C[C@H]2C(C)C)[C@@H](C)CC[C@@H]13 [CUR, Curcumol] | no side effects had been observed | 70.8 ± 9.0 | 68.3 ± 7.8 | 59.8 ± 8.5 |  |  |
| CC[C@@]1(O)C(=O)OCc2c1cc1n(c2=O)Cc2cc3ccccc3nc2-1 [CPT, Camptothecin] | no side effects had been observed | 68.5 ± 9.8 | 65.8 ± 9.8 | 71.8 ± 10.4 |  |  |
| COC(=O)C[C@](O)(CCCC(C)(C)O)C(=O)O[C@@H]1C(OC)=C[C@]23CCCN2CCc2cc4c(cc2[C@H]13)OCO4 [HHT, Homoharringtonine] |  | 87 ± 9 |  | 83 ± 9 | 68.3 ± 7.6 | 68.3 ± 7.6 |
| Eelemene | no side effects had been observed | 71.8 ± 9.5 | 69.2 ± 9.1 | 60.8 ± 8.9 |  |  |
